Activity calls are given as the source filed them. No cut-off for these calls is given here.
Tests used:
Bacillus subtilis = assay: Antimicrobial activity against Bacillus subtilis ATCC6633 assessed as inhibition of microbial growth at <= 200 ug/ml incubated for 18 hrs by micro-broth dilution method; type: functional, organism-based; settings: dose <= 200.0 µg/ml
Candida albicans [1] = assay: Antimicrobial activity against Candida albicans ATCC 2002 assessed as inhibition of microbial growth at <= 200 ug/ml incubated for 18 hrs by micro-broth dilution method; type: functional, organism-based; settings: dose <= 200.0 µg/ml
Escherichia coli [2] = assay: Antimicrobial activity against Carbapenem-resistant Escherichia coli assessed as reduction in microbial colony forming unit at 200 ug/ml incubated for 1 to 4 hrs by time-kill kinetics based analysis; type: functional, organism-based; settings: dose 200.0 µg/ml, time 1-4 hrs
Candida albicans [3] = assay: Antimicrobial activity against Candida albicans ATCC 2002 assessed as reduction in microbial colony forming unit at 200 ug/ml incubated for 1 to 4 hrs by time-kill kinetics based analysis; type: functional, organism-based; settings: dose 200.0 µg/ml, time 1-4 hrs
Staphylococcus aureus [4] = assay: Antibacterial activity against Methicillin-resistant Staphylococcus aureus infected in C57BL/6 mouse assessed as reduction in bacterial load at 10 mg/kg,ip pre-administrated 5 hrs before bacterial infection; type: functional, organism-based
Escherichia coli [5] = assay: Antibacterial activity against Escherichia coli ATCC 25922 infected in C57BL/6 mouse assessed as reduction in IL-1beta level in peritoneal fluid at 10 mg/kg,ip administrated 5 hrs after bacterial infection measured after 24 hrs by ELISA; type: functional, organism-based; settings: time 19.0 hrs
Staphylococcus aureus [6] = assay: Antibacterial activity against Methicillin-resistant Staphylococcus aureus infected in C57BL/6 mouse assessed as reduction in TNF-alpha level in peritoneal fluid at 10 mg/kg,ip pre-administrated 5 hrs before bacterial infection measured after 24 hrs by ELISA; type: functional, organism-based; settings: time 29.0 hrs
Escherichia coli [7] = assay: Antibacterial activity against Carbapenem-resistant Escherichia coli infected in C57BL/6 mouse assessed as reduction in TNF-alpha level in peritoneal fluid at 10 mg/kg,ip pre-administrated 5 hrs before bacterial infection measured after 24 hrs by ELISA; type: functional, organism-based; settings: time 29.0 hrs
Escherichia coli [8] = assay: Antibacterial activity against Carbapenem-resistant Escherichia coli infected in C57BL/6 mouse assessed as reduction in IL-6 level in peritoneal fluid at 10 mg/kg,ip pre-administrated 5 hrs before bacterial infection measured after 24 hrs by ELISA; type: functional, organism-based; settings: time 29.0 hrs
Staphylococcus aureus [9] = assay: Antibacterial activity against Staphylococcus aureus ATCC 25923 infected in C57BL/6 mouse assessed as reduction in IL-6 level in serum at 10 mg/kg,ip pre-administrated 5 hrs before bacterial infection measured after 24 hrs by ELISA; type: functional, organism-based; settings: time 29.0 hrs
Staphylococcus aureus [10] = assay: Antibacterial activity against Staphylococcus aureus ATCC 25923 infected in C57BL/6 mouse assessed as reduction in IL-1beta level in serum at 10 mg/kg,ip pre-administrated 5 hrs before bacterial infection measured after 24 hrs by ELISA; type: functional, organism-based; settings: time 29.0 hrs
Escherichia coli [11] = assay: Antibacterial activity against Escherichia coli ATCC 25922 infected in C57BL/6 mouse assessed as reduction in IL-6 level in serum at 10 mg/kg,ip administrated 5 hrs after bacterial infection measured after 24 hrs by ELISA; type: functional, organism-based; settings: time 19.0 hrs
Escherichia coli [12] = assay: Antibacterial activity against Escherichia coli ATCC 25922 infected in C57BL/6 mouse assessed as reduction in IL-1beta level in serum at 10 mg/kg,ip administrated 5 hrs after bacterial infection measured after 24 hrs by ELISA; type: functional, organism-based; settings: time 19.0 hrs
Staphylococcus aureus [13] = assay: Antibacterial activity against Methicillin-resistant Staphylococcus aureus infected in C57BL/6 mouse assessed as reduction in inflammatory injury in lung at 10 mg/kg,ip administrated 5 hrs after bacterial infection measured after 24 hrs by hematoxylin and eosin staining based analysis; type: functional, organism-based; settings: time 19.0 hrs
Escherichia coli [14] = assay: Antibacterial activity against Escherichia coli ATCC 25922 infected in C57BL/6 mouse assessed as increase in survival rate at 10 mg/kg,ip pre-administrated 5 hrs before bacterial infection measured after 7 days; type: functional, organism-based; settings: time 7.0 day
Staphylococcus aureus [15] = assay: Antibacterial activity against Methicillin-resistant Staphylococcus aureus infected in C57BL/6 mouse assessed as increase in survival rate at 10 mg/kg,ip pre-administrated 5 hrs before bacterial infection measured after 7 days; type: functional, organism-based; settings: time 7.0 day
Escherichia coli [16] = assay: Antibacterial activity against Carbapenem-resistant Escherichia coli infected in C57BL/6 mouse assessed as increase in survival rate at 10 mg/kg,ip administrated 5 hrs after bacterial infection measured after 7 days; type: functional, organism-based; settings: time 7.0 day
[17] = tested on: Peritoneal macrophage cell; assay: Induction of chemotaxis in mouse Peritoneal macrophage assessed as increase in macrophage migration at 25 to 100 ug/ml incubated for 8 hrs by crystal violet staining based direct transwell assay; type: functional, cell-based; settings: dose 25-100 µg/ml
Peritoneal macrophage [18] = assay: Induction of chemotaxis in mouse Peritoneal macrophage assessed as upregulation of MCP-1 gene expression incubated for 6 hrs by qPCR analysis; type: functional, cell-based
Peritoneal macrophage [19] = assay: Induction of chemotaxis in mouse Peritoneal macrophage assessed as upregulation of TNF-alpha expression at 25 to 100 ug/ml incubated for 6 hrs by ELISA; type: functional, cell-based; settings: dose 25-100 µg/ml
Peritoneal macrophage [20] = assay: Induction of chemotaxis in mouse Peritoneal macrophage assessed as upregulation of IL-6 expression at 25 to 100 ug/ml incubated for 6 hrs by ELISA; type: functional, cell-based; settings: dose 25-100 µg/ml
Peritoneal macrophage [21] = assay: Immunomodulatory activity in mouse Peritoneal macrophage assessed as decrease in LPS-induced TNF-alpha production at 25 to 100 ug/ml incubated for 6 hrs by ELISA; type: functional, cell-based; settings: dose 25-100 µg/ml
[22] = tested on: Peritoneal macrophage cell; assay: Induction of phagocytosis in mouse Peritoneal macrophage assessed as increase in neutral red dye uptake by measuring optical density absorbance at 100 ug/ml incubated for 24 hrs followed by dye addition measured after 4 hrs by absorbance based assay (reference value: 0.089); type: functional; settings: dose 100 µg/ml; time 28 hrs
Neutrophil = assay: Induction of ROS production in mouse bone marrow derived neutrophil at 25 to 100 ug/ml incubated for 6 hrs by DCFA-DA staining based flow cytometry; type: functional, cell-based; settings: dose 25-100 µg/ml
Peritoneal macrophage [23] = assay: Induction of chemotaxis in mouse Peritoneal macrophage assessed as upregulation of CXCL1 production at 100 ug/ml preincubated with WRW4 followed by compound addition by ELISA; type: functional, cell-based; settings: dose 100.0 µg/ml
Peritoneal macrophage [24] = assay: Immunoregulatory activity in mouse Peritoneal macrophage assessed as upregulation of ERK phosphorylation incubated for 1 hr by Western blotting analysis; type: functional, cell-based
Mus musculus [25] = assay: Antithrombotic activity in carrageenan-induced tail thrombosis BALB/c mouse model assessed as reduction in thrombus length at 10 mg/kg,ip administration measured for 6 to 48 hrs; type: functional, organism-based; settings: time 6-48 hrs
Plasma = assay: Anticoagulation activity in human platelet poor plasma assessed as elongation of prothrombin time at 100 ug/ml measured after 5 mins; type: functional, cell-free; settings: dose 100.0 µg/ml
Mus musculus [26] = assay: Anticoagulation activity in mouse assessed as change in plasma TFPI expression at 10 mg/kg,ip measured after 24 hrs by ELISA; type: functional, organism-based
Mus musculus [27] = assay: Anticoagulation activity in mouse infected with Methicillin-resistant Staphylococcus aureus assessed as increase in plasma TFPI expression at 10 mg/kg,ip pre-administrated 5 hrs before bacterial infection measured after 24 hrs by ELISA; type: functional, organism-based; settings: time 29.0 hrs
Mus musculus [28] = assay: Anticoagulation activity in mouse infected with Carbapenem-resistant Escherichia coli assessed as increase in plasma AT-III expression at 10 mg/kg,ip administrated 5 hrs after bacterial infection measured after 24 hrs by ELISA; type: functional, organism-based; settings: time 19.0 hrs

CC[C@H](C)[C@H](NC(=O)[C@@H]1CSSC[C@H](NC(=O)[C@H](CCC(=O)O)NC(=O)[C@@H](NC(=O)[C@H](CCCCN)NC(=O)[C@H](Cc2c[nH]cn2)NC(=O)[C@@H](NC(=O)[C@H](CCCCN)NC(=O)[C@H](CCC(=O)O)NC(=O)[C@H](C)NC(=O)[C@H](CCC(=O)O)NC(=O)[C@H](CCC(=O)O)NC(=O)[C@H](CCC(=O)O)NC(=O)[C@H](C)N)[C@@H](C)O)[C@@H](C)O)C(=O)N[C@@H](CC(C)C)C(=O)N[C@@H](CCC(=O)O)C(=O)N1)C(=O)N[C@@H](Cc1ccccc1)C(=O)N[C@H](C(=O)N[C@@H](CC(C)C)C(=O)N[C@@H](CC(C)C)C(=O)N1CCC[C@H]1C(=O)N1CCC[C@@H]1C(=O)N[C@H](C)C(=O)O)[C@@H](C)O
Activity (Bacillus subtilis): inactive
Activity (Candida albicans [1]): inactive
Activity (Escherichia coli [2]): inactive
Activity (Candida albicans [3]): inactive
Activity (Staphylococcus aureus [4]): Active
Activity (Escherichia coli [5]): Active
Activity (Staphylococcus aureus [6]): Active
Activity (Escherichia coli [7]): Active
Activity (Escherichia coli [8]): Active
Activity (Staphylococcus aureus [9]): Active
Activity (Staphylococcus aureus [10]): Active
Activity (Escherichia coli [11]): Active
Activity (Escherichia coli [12]): Active
Activity (Staphylococcus aureus [13]): Active
Activity (Escherichia coli [14]): Active
Activity (Staphylococcus aureus [15]): Active
Activity (Escherichia coli [16]): Active
Activity [17]: inactive
Activity (Peritoneal macrophage [18]): Dose-Dependent Effect
Activity (Peritoneal macrophage [19]): inactive
Activity (Peritoneal macrophage [20]): inactive
Activity (Peritoneal macrophage [21]): inactive
OD [22]: 0.111
Activity (Neutrophil): inactive
Activity (Peritoneal macrophage [23]): Active
Activity (Peritoneal macrophage [24]): Dose-Dependent Effect
Activity (Mus musculus [25]): Active
Activity (Plasma): inactive
Activity (Mus musculus [26]): inactive
Activity (Mus musculus [27]): Active
Activity (Mus musculus [28]): Active

From ChEMBL document CHEMBL5543174, “A Nonbactericidal Anionic Antimicrobial Peptide Provides Prophylactic and Therapeutic Efficacies against Bacterial Infections in Mice by Immunomodulatory-Antithrombotic Duality” (J Med Chem, 2024)
